The test system of test [1] is PBMCs from HIV-1 well-suppressed patients. Briefly: Latent HIV-1 activation in PBMCs of well-suppressed patients (HIV-1 RNA copies in supernatant, RT-qPCR). Format: cell-based, human. From the text: To study the potential of novel TLR7/8 in activating latent HIV-1 reservoir, TLR7/8 dual agonists D018 and C142 and TLR8-specific agonist B-130a were mixed with PBMCs from six well-suppressed patients whose viral load in the plasma was less than 50 copies/ml, and CD4 counts were more than […] for more than 6 years.
TLR7/8 agonists activated PBMCs from seven well-suppressed patients with the addition of anti-TNF-α monoclonal antibody or IgG1-control monoclonal antibody, respectively. D018, B-130a, and the positive control PMA + ION increased the levels of HIV-1 RNA copies in the supernatant and the concentration of TNF-α concomitantly.
To measure the HIV viral load, viral RNA from supernatants was extracted by MagaBio Plus Viral DNA / RNA Purification Kit (BIOER). The reverse-transcription and analysis of RNA copies were performed using the HIV-1 Real-time PCR detection kit (BIOER).
On the technique in general: Quantitative PCR measures a nucleic acid by following its amplification.

In test [2] the test system is PBMCs. Briefly: Inflammatory cytokine release from PBMCs (Legend-plex). It counts as cell-based, human. To be noted: PBMC culture supernatant 48 h after stimulation. The procedure:
Then, a total of 13 human inflammatory cytokines and chemokines (IL-1β, IFN-α2, IFN-γ, TNF-α, CCL2, IL-6, CXCL8, IL-10, IL-12p70, IL-17A, IL-18, IL-23, and IL-33) were measured in the culture supernatant 48 h after stimulation and compared with two healthy donors. Only 8 out of 13 became detectable and largely fell into the proinflammatory cytokines (IL-1β, IL-6, IL-18, IL-23, and TNF-α), Th1-and Th2-type cytokines (IL-10 and IFN-γ), and type I (IFN-α2) and type II (IFN-γ) interferons (Figures 2B–I).
The supernatants from PBMCs culture were collected and stored at-20°C until analysis. For the Multi-cytokines assay, the Legend-plex Human Inflammation Panel 1 kit (Biolegend) was used according to the manual. Thirteen human inflammatory cytokines/chemokines were measured, including IL-1β, IFN-α2, IFN-γ, TNF-α, MCP-1 (CCL2), IL-6, IL-8 (CXCL8), IL-10, IL-12p70, IL-17A, IL-18, IL-23, and IL-33.

The test system of test [3] is NF-κB p65 in U1 cells. Nature of the test: Nuclear phospho-p65-S536 in U1 cells (western blot). To be noted: 1 μM, 30 min, 37°C. A general note: Immunoblotting shows a protein as a band on a membrane.
Description: For measuring NF-kB p65 and phosphor-p65 S536, 5 × 10^6 U1 cells were stimulated by 1 μM TLR7/8 agonists D018 (7/8), B-130a (8), GS9620 (7), and DMSO (negative control) for 30 min. Nuclear proteins were extracted by NE-PER Nuclear and Cytoplasmic Extraction Reagents (Pierce) and measured the concentration using BCA protein measure kit (Thermo).
Equal amounts of extracts were loaded on the 10% polyacrylamide gel SDS-PAGE. Then proteins were electro-transferred to nitrocellulose membranes 300 mA for 90 min and incubated with blocking buffer (5% nonfat dry milk and 0.1% Tween 20 in TBS) for 1 h at room temperature. NF-kB p65, phosphorylate p65-s529, and PCNA (as the control of nuclear protein) were separately detected by NF-κB p65 Mouse mAb (CST), Phospho-NF-κB p65 Ser536 Rabbit mAb (CST) and PCNA Rabbit mAb (CST) in blocking buffer overnight at 4°C. After washing 5 times in TBST (1 × TBS + 0.1% Tween), the membranes were incubated with anti-mouse IgG (H + L) HRP (Promega) and anti-rabbit IgG (H + L) HRP (Promega) for 1 h at room temperature. After washing 5 times in TBST, membranes were incubated with ECL detection reagents (Bio-red) and then developed in Bio-red imager.
The test system of test [4] is J-LAT CD4 T cell line (latent HIV-1). Briefly: J-LAT activation by supernatant of agonist-stimulated healthy donor PBMCs (GFP+ cells, FACS). The note with it: 48 h, highest concentration 16 μM.
The target in test [5] is T1, hTLR8 (Homo sapiens, UniProt Q9NR97).
T1 construct: host or cells: HEK-Blue hTLR8 (HEK293-derived)
T1 sequence (Q9NR97 27-1041): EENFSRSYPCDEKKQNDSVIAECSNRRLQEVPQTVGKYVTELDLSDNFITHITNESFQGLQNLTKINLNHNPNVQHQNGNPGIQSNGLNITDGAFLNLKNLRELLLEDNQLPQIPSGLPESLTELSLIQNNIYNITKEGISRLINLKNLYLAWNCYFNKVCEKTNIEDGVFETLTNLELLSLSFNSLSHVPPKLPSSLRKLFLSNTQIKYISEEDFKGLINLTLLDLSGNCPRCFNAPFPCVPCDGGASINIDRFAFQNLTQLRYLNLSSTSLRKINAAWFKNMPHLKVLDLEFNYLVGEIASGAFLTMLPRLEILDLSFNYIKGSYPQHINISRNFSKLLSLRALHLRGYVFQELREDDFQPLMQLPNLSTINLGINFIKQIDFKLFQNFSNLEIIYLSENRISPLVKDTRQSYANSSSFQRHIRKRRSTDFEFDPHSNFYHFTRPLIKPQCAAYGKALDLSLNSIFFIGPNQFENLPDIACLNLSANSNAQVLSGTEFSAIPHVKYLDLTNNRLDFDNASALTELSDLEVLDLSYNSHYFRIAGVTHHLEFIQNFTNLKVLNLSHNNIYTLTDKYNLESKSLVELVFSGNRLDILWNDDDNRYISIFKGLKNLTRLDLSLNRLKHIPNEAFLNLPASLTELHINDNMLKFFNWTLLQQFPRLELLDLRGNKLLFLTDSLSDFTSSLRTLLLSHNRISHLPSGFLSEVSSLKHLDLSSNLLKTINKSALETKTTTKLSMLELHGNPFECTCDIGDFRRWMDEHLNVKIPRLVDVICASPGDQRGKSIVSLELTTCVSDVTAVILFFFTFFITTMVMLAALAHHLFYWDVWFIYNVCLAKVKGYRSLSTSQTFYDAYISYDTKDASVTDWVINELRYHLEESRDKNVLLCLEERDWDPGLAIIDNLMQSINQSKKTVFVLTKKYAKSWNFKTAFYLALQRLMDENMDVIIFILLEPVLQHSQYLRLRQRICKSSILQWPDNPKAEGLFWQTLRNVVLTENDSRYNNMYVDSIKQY
Nature of the test: HEK-Blue hTLR8 SEAP reporter assay. Format: cell-based. To be noted: HEK-Blue hTLR8 cells, SEAP in supernatant. The procedure:
Starting with the lead compound, 76 pyrido [3,2-d] pyrimidine derivatives were synthesized and optimized through structural modification from the deep hydrophobic region to the solvent-exposed region. Seventy-six compounds were evaluated for their in vitro activity using HEK-Blue hTLR7 or hTLR8 reporter cells, stably expressing the human TLR7 or TLR8 and an NF-κB/AP1-inducible SEAP (secreted embryonic alkaline phosphatase reporter gene).
Add 20 μl various concentrations of TLR agonists (10 dilutions) and in a 96-well plate. Then HEK-Blue hTLR7 and hTLR8 cells were suspended to 4 × 10^5 cells/ml in HEK-Blue Detection (InvivoGen) medium and added 180 μl per well. The plates were incubated at 37°C in 5% CO2 for 12 ~ 16 h. Stimulation with a hTLR7or hTLR8 ligand activates NF-κB to induce the production of secreted embryonic alkaline phosphatase (SEAP) in the culture supernatant. SEAP could be measured at OD630nm on an ELISA plate reader.

The structures appear in SMILES notation.

A word on the EC50: it is the concentration that produces a half-maximal response. Low values mean a more potent agent, high ones a less potent agent.

As to `CCCCNc1nc(N)nc2ccc(Cc3ccc(CN(C)C)cc3)nc12` [D018], the “HIV-1 RNA copies in the supernatant and TNF-α concentration” value in test [1] (PBMCs from seven well-suppressed patients, IgG1-control antibody vs anti-TNF-α) was “increased”. Further, the “HIV-1 RNA copies in the supernatant” value in test [1] (patient PBMCs (n = 6), 96 h at 37°C) is on record as “most potent”. In test [2], the “release of inflammatory cytokines” value was “either equivalent (IL-6, IL-10, IL-23, and IFN-γ) or higher (IL-1β, IL-18, and TNF-α) than the commercially available R848”. Further, the “nuclear phos-p65-S536” value in test [3] is on record as “significant increase”. For the same compound, the “GFP-positive J-LAT cells, PBMC supernatant” value in test [4] is on record as “most potent”. In addition, the EC50 in test [5] is 6.46 nM.
